The target of test [1] is T1, Dual specificity mitogen-activated protein kinase kinase 3 (Homo sapiens) (UniProt P46734).
T1 sequence (whole entry): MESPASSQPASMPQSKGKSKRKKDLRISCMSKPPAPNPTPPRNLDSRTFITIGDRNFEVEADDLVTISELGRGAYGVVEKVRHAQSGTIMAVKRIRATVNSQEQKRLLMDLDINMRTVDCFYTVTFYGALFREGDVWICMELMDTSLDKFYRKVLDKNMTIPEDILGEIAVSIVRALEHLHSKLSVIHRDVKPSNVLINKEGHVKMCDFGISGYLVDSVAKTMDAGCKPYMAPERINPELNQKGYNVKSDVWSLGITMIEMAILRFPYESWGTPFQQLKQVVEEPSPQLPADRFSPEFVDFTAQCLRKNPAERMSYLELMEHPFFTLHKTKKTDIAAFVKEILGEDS
Briefly: Selectivity interaction (Kinase panel (KiNativ target engagement assay in Jurkat cells)) EUB0001635a MAP2K3. The settings on record: at 1 µM. Type of test: cell-based.

Test [2] concerns the target Casein kinase I isoform gamma-1 (Homo sapiens) (UniProt Q9HCP0). Briefly: Selectivity interaction (KinomeScan (DiscoverX)) EUB0000666a CSNK1G1. The following applies: at 10 µM.
Test [3] has as its target T2, Aurora kinase A (Homo sapiens) (UniProt O14965).
T2 sequence (whole entry): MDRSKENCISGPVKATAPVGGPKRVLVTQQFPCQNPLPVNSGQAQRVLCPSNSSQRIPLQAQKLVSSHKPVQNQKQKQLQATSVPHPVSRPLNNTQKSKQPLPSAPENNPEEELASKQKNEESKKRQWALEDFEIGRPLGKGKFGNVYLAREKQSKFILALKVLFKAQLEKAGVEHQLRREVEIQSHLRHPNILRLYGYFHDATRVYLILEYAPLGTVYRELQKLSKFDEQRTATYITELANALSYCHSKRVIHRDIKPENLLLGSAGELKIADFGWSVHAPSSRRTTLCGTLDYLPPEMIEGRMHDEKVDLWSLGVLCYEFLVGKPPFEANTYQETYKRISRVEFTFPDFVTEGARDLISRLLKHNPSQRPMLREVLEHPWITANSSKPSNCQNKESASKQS
Briefly: Selectivity interaction (KinomeScan (DiscoverX)) EUB0001079a STK6. The settings on record: at 1 µM.

For test [4], the target named is Serine/threonine-protein kinase PLK3 (Homo sapiens, UniProt Q9H4B4). Briefly: Selectivity interaction (Kinase panel (Invitrogen)) EUB0000639a PLK3. The settings on record: at 200 nM.
For test [5], the target named is Tyrosine-protein kinase Lck (Homo sapiens, UniProt P06239). Briefly: Selectivity interaction (Millipore kinase profiler) EUB0000124b LCK. The following applies: at 10 µM.
Test [6] deals with T3, Ephrin type-B receptor 1 (Homo sapiens) (UniProt P54762).
T3 sequence (whole entry): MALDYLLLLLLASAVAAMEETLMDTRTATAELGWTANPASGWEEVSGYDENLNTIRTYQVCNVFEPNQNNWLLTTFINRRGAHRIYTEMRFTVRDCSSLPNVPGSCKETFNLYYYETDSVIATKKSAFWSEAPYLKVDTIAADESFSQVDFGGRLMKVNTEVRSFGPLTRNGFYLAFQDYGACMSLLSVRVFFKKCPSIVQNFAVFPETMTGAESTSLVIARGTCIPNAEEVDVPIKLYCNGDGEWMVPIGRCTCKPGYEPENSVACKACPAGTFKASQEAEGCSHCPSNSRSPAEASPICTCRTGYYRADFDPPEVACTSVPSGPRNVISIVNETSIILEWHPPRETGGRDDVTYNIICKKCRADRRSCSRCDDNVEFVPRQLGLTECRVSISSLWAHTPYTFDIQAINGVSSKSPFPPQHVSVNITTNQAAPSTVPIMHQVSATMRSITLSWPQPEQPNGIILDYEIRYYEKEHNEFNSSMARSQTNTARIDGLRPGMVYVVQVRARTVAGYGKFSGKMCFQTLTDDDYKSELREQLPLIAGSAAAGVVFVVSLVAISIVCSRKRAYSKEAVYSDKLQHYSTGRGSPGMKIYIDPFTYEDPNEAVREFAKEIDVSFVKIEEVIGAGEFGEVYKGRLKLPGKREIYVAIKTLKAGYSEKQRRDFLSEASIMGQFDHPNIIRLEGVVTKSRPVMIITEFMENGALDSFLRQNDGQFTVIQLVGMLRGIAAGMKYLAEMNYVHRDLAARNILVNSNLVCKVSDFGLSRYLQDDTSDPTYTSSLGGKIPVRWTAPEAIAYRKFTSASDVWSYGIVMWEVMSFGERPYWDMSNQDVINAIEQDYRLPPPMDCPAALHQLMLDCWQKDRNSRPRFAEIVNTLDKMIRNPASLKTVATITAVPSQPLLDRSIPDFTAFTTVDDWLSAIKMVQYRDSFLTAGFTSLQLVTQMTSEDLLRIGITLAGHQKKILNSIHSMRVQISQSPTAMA
The test can be described thus: Selectivity interaction (Upstate Kinase Profiler service (Millipore)) EUB0000056c EPHB1. The following applies: at 1 µM.

Serine/threonine-protein kinase PLK3, sequence (Q9H4B4 whole entry, looked up): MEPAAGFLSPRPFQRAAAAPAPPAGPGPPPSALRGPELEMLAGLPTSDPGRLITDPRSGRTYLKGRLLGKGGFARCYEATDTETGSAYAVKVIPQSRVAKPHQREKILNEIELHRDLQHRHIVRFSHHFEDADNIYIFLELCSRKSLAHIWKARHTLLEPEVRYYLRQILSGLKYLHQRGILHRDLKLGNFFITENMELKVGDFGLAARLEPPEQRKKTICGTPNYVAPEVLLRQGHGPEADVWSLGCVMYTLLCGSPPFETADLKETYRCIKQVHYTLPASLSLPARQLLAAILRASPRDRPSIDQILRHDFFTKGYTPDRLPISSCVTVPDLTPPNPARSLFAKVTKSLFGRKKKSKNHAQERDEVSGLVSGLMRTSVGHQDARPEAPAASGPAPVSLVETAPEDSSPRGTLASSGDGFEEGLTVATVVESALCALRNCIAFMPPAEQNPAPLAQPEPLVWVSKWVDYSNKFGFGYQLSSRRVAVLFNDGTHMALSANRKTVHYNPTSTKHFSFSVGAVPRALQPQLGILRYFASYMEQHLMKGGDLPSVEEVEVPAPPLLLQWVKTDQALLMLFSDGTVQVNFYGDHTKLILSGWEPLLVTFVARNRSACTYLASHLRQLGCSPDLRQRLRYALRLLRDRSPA
Tyrosine-protein kinase Lck, sequence (P06239 2-509 limits assumed): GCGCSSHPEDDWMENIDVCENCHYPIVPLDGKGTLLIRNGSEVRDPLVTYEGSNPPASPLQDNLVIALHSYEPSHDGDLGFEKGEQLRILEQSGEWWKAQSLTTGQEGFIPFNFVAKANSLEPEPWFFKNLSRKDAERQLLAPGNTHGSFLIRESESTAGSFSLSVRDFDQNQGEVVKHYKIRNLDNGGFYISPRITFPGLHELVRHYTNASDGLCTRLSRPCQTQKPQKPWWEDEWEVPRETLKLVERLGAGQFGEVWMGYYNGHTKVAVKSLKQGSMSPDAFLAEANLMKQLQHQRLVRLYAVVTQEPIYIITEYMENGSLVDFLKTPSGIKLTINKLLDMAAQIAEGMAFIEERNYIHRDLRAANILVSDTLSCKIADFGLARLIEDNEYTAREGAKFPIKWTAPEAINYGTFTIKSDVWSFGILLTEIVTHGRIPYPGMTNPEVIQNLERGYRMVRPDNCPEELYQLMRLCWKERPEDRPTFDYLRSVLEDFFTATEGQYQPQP
Casein kinase I isoform gamma-1 (Homo sapiens), sequence (Q9HCP0 whole entry, looked up, canonical isoform): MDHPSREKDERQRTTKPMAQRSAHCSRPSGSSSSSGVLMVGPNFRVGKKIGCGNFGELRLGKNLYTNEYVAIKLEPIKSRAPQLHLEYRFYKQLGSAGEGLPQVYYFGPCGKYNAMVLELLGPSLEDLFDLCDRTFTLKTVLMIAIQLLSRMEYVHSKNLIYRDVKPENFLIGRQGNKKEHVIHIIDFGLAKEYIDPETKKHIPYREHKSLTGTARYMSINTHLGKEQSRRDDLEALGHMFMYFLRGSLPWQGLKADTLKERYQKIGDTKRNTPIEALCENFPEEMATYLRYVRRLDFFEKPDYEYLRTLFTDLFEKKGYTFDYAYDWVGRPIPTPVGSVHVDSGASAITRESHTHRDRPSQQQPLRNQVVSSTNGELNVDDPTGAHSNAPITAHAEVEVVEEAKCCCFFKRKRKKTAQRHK

With `C=CC(=O)Nc1ccc(C(=O)Nc2[nH]nc3c2CN(C(=O)N[C@H](CN(C)C)c2ccccc2)C3(C)C)cc1`, the % of engagement in test [1] (Selectivity number of off-targets 0.0, Selectivity number of targets 233.0, Source Knowledge https://www.sciencedirect.com/science/article/pii/S2451945619300674?via%3Dihub) was 8.4%; in test [1], -7.7%.
In the case of `O=C(NOC[C@H](O)CO)c1ccc(F)c(F)c1Nc1ccc(I)cc1F`, the % of control in test [2] stood at 61%.
As for `Nc1cnc(N2CCc3cc(S(=O)(=O)Nc4c(F)cc(Cl)cc4F)cc(N4CCCC4=O)c32)nc1` [TP-020n], the % of control in test [3] was 100%.
In turn, `CC[C@@H]1[C@H](F)C(=O)N[C@@H]1COc1nccc2cc(C(N)=O)c(OC)cc12` [ZIMLOVISERTIB] showed a % of inhibition in test [4] of 5.09%.
Regarding `CC(=O)Nc1cccc(-n2c(=O)n(C3CC3)c(=O)c3c(Nc4ccc(I)cc4F)n(C)c(=O)c(C)c32)c1`, in test [5], the % of control was 110%.
Take `Cc1ccc(-c2ccc3c(ccc4sc5c(c43)NC[C@@H](C)NC5=O)n2)cn1`: in test [6], the % of inhibition came out at 9%.

These data come from ChEMBL document CHEMBL5465560, “Selectivity Literature for EUbOPEN Chemogenomic Library” (2024).
